Patent US20110077230A1, “COPPER ORGANOCOMPLEXES, USE THEREOF AS ANTITUMOR MEANS AND FOR PROTECTING HEALTHY TISSUE FROM IONIZING RADIATION” (CHARITE - UNIVERSITATSMEDIZIN BERLIN, priority 2008, published 2011)

Assays:
EAC cells = test: Cytosolic calcium (chlortetracycline fluorescence) in EAC cells; assay type: cell-based, mice; details: depending on the dose
Protocol: (§1) The Ehrlich ascites carcinoma (EAC) was obtained from white male mice of the strain MNR1 and the thymocytes from the thymus of rats of the Wistar line. Vitality of the cells was tested by vital staining using trypan blue and experiments and determined to be no less than 95% in all experiments. The NADH state in the EAC cells was assessed with reference to their fluorescence intensity. Measurement of the intracellular calcium concentration was performed according to the standard methodology of fluorescence using chlortetracycline. The membrane potential was measured using the fluorescent dye No. 1104. NADH is a source of electrons in the oxidative phosphorylation process. […] These effects are directed to inhibiting the NAD-dependent dehydrogenase. As a result, the respiratory chain in the tumor cells is inhibited.
The concentration of intracellular calcium is a trigger for a number of intracellular processes (FIG. 17c, 17d).

[1] = test system: colon adenocarcinoma tumor (AKATOL); test: Transplanted colon adenocarcinoma (AKATOL), peroral administration; assay type: in vivo, mice of the BALB line; details: for Average weight of tumor: days 3 to 10, day 21
Protocol: Tumor cells were transplanted in mice of the BALB line by injection into the thighs. 3 of 4 groups received the respective preparation on the peroral route 3, 4, 5, 6, 7, 8, 9 and 10 days after tumor implantation.
Group I: 10 mg/kg complex A suspended in olive oil.
Group II: 5 mg/kg complex A suspended in olive oil.
Group III: 10 mg/kg sarcolysine suspended in olive oil.
On day 21 of the experiment the animals were sacrificed and examined.

neutrophils = test: Antioxidant properties: ROS formation in neutrophils; assay type: cell-based, male mice of the NMRI line; details: triggered by PMA and fMLF, depending on the dosage
Excerpt: The complexes A and C show a pronounced effect as antioxidant in an environment having an excess of reactive oxygen species (ROS). Thus, ROS formation in neutrophils obtained from male mice of the NMRI line was triggered by two activators: phorbol 12-myristate 13-acetate (PMA) and N-formyl-methionyl-leucylphenylalanine (fMLF).

[2] = test system: Ehrlich ascites carcinoma (EAC) cells; test: NADH state (fluorescence) in EAC cells; assay type: cell-based, mice
Protocol: as §1

[3] = test system: primary lymphoblasts from ALL patients; test: Ex vivo induction of apoptosis in primary lymphoblasts; assay type: cell-based, human; details: concentration in LC50 range of NALM-6, 60 hours, cells resistant to daunorubicin and doxorubicin
Protocol: Thereafter, the cells were incubated for 60 hours at 37° C. and 5% CO2, subsequently stained with propidium iodide and quantified using flow cytometry in an FACS.

Walker carcinosarcoma = test: Nitrosyl complexes of hem iron (EPR) in Walker carcinosarcoma; assay type: in vivo, rats; details: 30 mg/kg intraabdominally in liposomes, especially with hyperglycemia and ultrasound
Excerpt: The oxygen metabolism in malignant cells is affected in such a way that increased NO production in these cells results in increased binding of NO to the hem iron, thereby disturbing the normal function thereof. The formation of such NO bonds becomes manifest in the EPR spectrum as a characteristic triplet overlying a singlet.
The effect of complex A on the concentration of Fe—NO bonds was investigated in an experiment using rats. The Walker carcinosarcoma was transplanted in the rats. 17 days after transplantation the animals were administered intraabdominally with complex A at a dosage of 30 mg/kg, suspended in liposomes from egg lecithin. Some of the animals also received glucose or glucose plus ultrasound.

BJAB cells = test: Change in mitochondrial membrane potential (JC-1, flow cytometry) in BJAB cells; assay type: cell-based, human; details: 48 hours, concentration-dependent
Protocol: Following treatment of the BJAB cells with different concentrations of complex A, carrying along a zero control and a solvent control, the cells were incubated for 48 hours at a temperature of 37° C. and 5% CO2. […] A concentration-dependent change of the mitochondrial membrane potential induced by complex A is found in more than 30% of the cells.

[4] = test system: human mammary gland tumor cells; test: In vitro effect on human mammary gland tumor cells (trypan blue, photography); assay type: cell-based
Protocol: From a patient with mammary carcinoma already showing signs of decay, postoperational material was collected and the tumor cells were separated therefrom. A suspension of these tumor cells was added with trypan blue dye and complex A. During the course of the test, three cells situated closely to each other (A, B and C) were documented by photography (FIGS. 22a, 22b and 22c). After incubating for 18 minutes, wrinkling of the membrane of cell A and invagination of the membrane of cell B can be recognized. After 28 minutes of incubation, cell fragments become stained with trypan blue, a sign that apoptosis has begun. After 43 minutes of incubation, membrane components and the contents thereof detach from the cells.

[5] = test system: human mammary gland tumor cells, T2N1M0 stage; test: In vitro effect on human mammary gland tumor cells, Experiment 1; assay type: cell-based
Protocol: Tumor cells were collected from the surgical material of female patients suffering from mammary carcinoma at two different stages. The tumor tissue was added with sterile 0.25% trypsin solution and centrifuged repeatedly in RPMI-1640 nutrient medium for 15 minutes at 1500 revolutions per minute. The amount of resulting cells was counted and the suspension of tumor cells divided into five equal groups. The RPMI-1640 nutrient medium was added with 12% fetal calf serum. The cells were incubated for 48 h at 37° C. in a 5% CO2 stream.
The preparations were dissolved in 4% DMSO and physiological saline and acidified with HCl.
Two experiments were performed using cancer cells derived from tumors of different stages. To differentiate the various stages of cancer, the TNM classification is used internationally which takes into account the tumor size (T), lymph node affection (N=nodal status) and the extent of metastasis (M).
(T2: tumor up to 5 cm; N1; metastases in 3 lymph nodes; M0: no distant metastases). A suspension including 40 million cells was added with 50 μl of each preparation.
The 5 groups with cancer cells received the following:
After subjecting the preparations to flow incubation for 60 minutes, trypan blue stained cells were produced, and dead cells and apoptosis could be determined; dead cells and apoptotic cells were determined in specific units of time and morphological findings.

[6] = test system: Ehrlich ascites adenocarcinoma; test: Ehrlich ascites adenocarcinoma in mice; assay type: in vivo, white mice
Protocol: The tumor was implanted intraabdominally in white mice of no particular race.
Group I received complex A orally as a suspension in olive oil at a dosage of 10 mg/kg 3, 4, 5, 6, 7, 8, 9 and 10 days after tumor implantation.
Group II received the same treatment, but using sarcolysine instead of complex A.
Group III received no treatment.
The animals were sacrificed and examined on the 11th day after tumor implantation.

Substance: Copper-sarcolysine hydrochloride complex [complex A]
- concentration of cytosolic calcium (EAC cells): increase
- % inhibition ([1]; 5 mg/kg peroral in olive oil): 68%
- Average weight of tumor ([1]; 5 mg/kg peroral in olive oil): 1.04 g
- % inhibition ([1]; 10 mg/kg peroral in olive oil): 81.5%
- Average weight of tumor ([1]; 10 mg/kg peroral in olive oil): 0.71 g
- formation of ROS in neutrophils (neutrophils): reduce or completely suppress
- response to oligomycin [2]: reduce the response to oligomycin
- induction of apoptosis in lymphoblasts [3]: about 26%
- concentration of Fe—NO bonds (EPR) (Walker carcinosarcoma): significantly reduces
- cells with change of the mitochondrial membrane potential (BJAB cells): more than 30%
- incubation time to wrinkling / invagination of the cell membrane [4]: 18 min
- incubation time until cell fragments stain with trypan blue (apoptosis has begun) [4]: 28 min
- incubation time until membrane components and contents detach from the cells [4]: 43 min
- Living cells, % ([5]; Experiment 1, T2N1M0): 24.0 ± 1.90%
- Dead cells, % ([5]; Experiment 1, T2N1M0, 40 million cells, 50 μl of preparation): 76.0 ± 2.06%
- % inhibition ([6]; 10 mg/kg orally): 75.3%
- Average MI of bone marrow ([6]; 10 mg/kg orally): 0.95 ± 0.47 ‰
- Average MI of tumor cells ([6]; 10 mg/kg orally): 1.0 ± 0.7 ‰
- Average number of tumor cells ([6]; 10 mg/kg orally in olive oil, days 3 to 10, day 11): 40′ 10^6
